Measured values as given in PMC12495443, “Developing inhibitors of the guanosine triphosphate hydrolysis accelerating activity of Regulator of G protein Signaling-14 [drawing 1]” (The Journal of Biological Chemistry, 2025).

Target: T1, cysteine-less RGS12 RGS-box protein (Homo sapiens, UniProt O14924, C701S/C748S/C775S/C831S)
T1 construct: human RGS12 RGS-box (aa 695–843 of UniProt O14924); host or cells: E. coli
T1 sequence (O14924 695-843 C701S/C748S/C775S/C831S): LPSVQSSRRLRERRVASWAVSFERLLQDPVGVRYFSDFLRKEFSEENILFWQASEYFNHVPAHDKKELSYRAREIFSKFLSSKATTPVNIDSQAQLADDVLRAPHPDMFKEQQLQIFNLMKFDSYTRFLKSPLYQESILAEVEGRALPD
Experiment: Transcreener GDP RGScreen assay with cysteine-less RGS12 RGS-box
Type: biochemical
Details: range given jointly for cysteine-less RGS14 and RGS12 proteins; read-out: estimated IC50, cysteine-less RGS12 RGS-box
Text: Given the earlier experience with screening hit CCG-4986 being a covalent modifier of RGS4 cysteine residues ([35]), we sought to exclude protein-thiol reactivity as a potential mechanism of action of the active compounds derived from the AtomNet virtual screening effort ([55]) and SAR campaign follow-ups. To address this possibility and screen out thiol-reactive hits, cysteine-lacking versions of recombinant proteins spanning the RGS-boxes of RGS14 and RGS12 were purified from E. coli cultures.
Reagents and protocols for the fluorescence anisotropy-based Transcreener GDP RGScreen assay using a rate-altered, double point-mutant, recombinant Gαi1 protein have been extensively described previously ([43], [44]); reactions were always performed so that total GTP converted over the time course was consistently less than 10% of reaction maximum input. […] Open-reading frames (ORFs) encoding wild-type versions of the human RGS14 RGS-box (aa 46–195 of UniProt O43566) and human RGS12 RGS-box (aa 695–843 of UniProt O14924) were each sub-cloned in-frame with an N-terminal hexahistidine (His6) expression tag in the plasmid pET30a, expressed in E. coli cultures, and then purified by nickel-nitriloacetate (Ni-NTA) and size-exclusion (Superdex 200) column chromatographies by GenScript using previously described methods ([35]). […]

IC50: 10 to 19 µM
Compound: COc1ccc(OCc2nnc3n2N=C(c2ccc(OC)c(OC)c2)CS3)cc1 [Z55660043, 6-(3,4-dimethoxyphenyl)-3-[(4-methoxy-phenoxy)methyl]-5H-[1,2,4]triazolo[3,4-b][1,3,4]thiadiazine]
